Experimental data from US20260191874A1, “FUSED AMINO PYRIMIDINE COMPOUNDS FOR TREATMENT OF AUTISM SPECTRUM DISORDER, OBSESSIVE COMPULSIVE DISORDER AND TICS” (Ovid Therapeutics Inc., priority 2024, published 2026).

Tests used:
KCC2-S940A = target: T1, KCC2-S940A (Homo sapiens, UniProt Q9H2X9, S963A); assay: Tl+ flux assay in HEK-293 cells expressing KCC2-S940A; format: cell-based
T1 construct: expressed in transfected cells; host or cells: HEK-293
T1 sequence (Q9H2X9 1-1116 isoform Q9H2X9-2 S940A): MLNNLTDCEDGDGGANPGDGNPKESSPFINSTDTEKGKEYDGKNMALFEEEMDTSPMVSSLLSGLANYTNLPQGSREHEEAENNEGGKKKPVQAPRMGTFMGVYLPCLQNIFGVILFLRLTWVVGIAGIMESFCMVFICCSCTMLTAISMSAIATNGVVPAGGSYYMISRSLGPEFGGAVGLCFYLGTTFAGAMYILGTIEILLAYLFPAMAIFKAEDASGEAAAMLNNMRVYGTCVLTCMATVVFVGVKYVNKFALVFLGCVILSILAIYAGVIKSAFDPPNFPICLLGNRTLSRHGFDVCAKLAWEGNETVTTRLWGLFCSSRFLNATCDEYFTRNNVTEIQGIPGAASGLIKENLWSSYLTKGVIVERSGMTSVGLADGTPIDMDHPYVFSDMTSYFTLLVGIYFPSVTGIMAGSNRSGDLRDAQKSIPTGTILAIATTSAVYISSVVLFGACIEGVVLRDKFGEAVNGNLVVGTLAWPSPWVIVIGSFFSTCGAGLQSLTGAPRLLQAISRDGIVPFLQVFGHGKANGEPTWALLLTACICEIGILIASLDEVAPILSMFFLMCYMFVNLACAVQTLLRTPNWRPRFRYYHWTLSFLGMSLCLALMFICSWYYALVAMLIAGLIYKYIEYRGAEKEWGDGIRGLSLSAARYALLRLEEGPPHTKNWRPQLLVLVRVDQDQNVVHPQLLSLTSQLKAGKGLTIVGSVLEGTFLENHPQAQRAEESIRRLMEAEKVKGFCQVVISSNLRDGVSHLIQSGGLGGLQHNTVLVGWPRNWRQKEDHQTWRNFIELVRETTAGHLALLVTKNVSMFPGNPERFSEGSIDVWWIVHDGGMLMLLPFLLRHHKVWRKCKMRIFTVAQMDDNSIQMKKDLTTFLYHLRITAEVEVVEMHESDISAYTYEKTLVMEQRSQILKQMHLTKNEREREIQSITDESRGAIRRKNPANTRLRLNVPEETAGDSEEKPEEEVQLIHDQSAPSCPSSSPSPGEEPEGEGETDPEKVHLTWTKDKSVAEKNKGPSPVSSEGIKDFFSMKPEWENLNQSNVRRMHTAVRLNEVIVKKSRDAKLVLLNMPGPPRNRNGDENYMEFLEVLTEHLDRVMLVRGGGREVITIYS
Protocol: FLIPR TI Flux assay. HEK-293 cells were washed with HBSS, and then incubated with loading buffer containing TI sensitive fluorescent dye (https://www.moleculardevices.com), 20 μM bumetanide 20 μM ouabain and 2.5 mM probenecid for 1 h at room temperature (RT) under control conditions or with drugs in the dark using a FlexStation 3 microplate reader (Molecular Devices) and imaged […] for 30 min. Stimulus buffer was added containing 5 mM K^+/0.5 mM Tl^+ and cells were imaged every 1.5 over a 190 second time course The initial rate Tl^+ uptake (Relative Fluorescence Units (RFU) per second) was determined following addition of the stimulus buffer as outlined previously (Conway et al., 2017, supra) (Lee et al., 2022, supra).
Several studies have shown that the activity and plasma membrane accumulation of KCC2 is potentiated via phosphorylation of S940, a process mediated by the activity of protein kinase C and protein phosphatase 1 (Lee et al., 2011, supra; Lee et al., J Biol Chem 282, 29777-29784 (2007); Moore et al., Proc. Natl. Acad. Sci. U.S.A 115, 10166-10171 (2018); Moore et al., Trends Neurosci. 40, 555-571 (2017); Silayeva et al., Proc. Natl. Acad. Sci. U.S.A 112, 3523-3528 (2015)). […] Compared to KCC2, effects on KCC3, KCC4, and NKCC1 were only seen at concentrations more than 35-fold that of KCC2 (≥100 μM) (FIG. 1G).

[1] = system: panel of 144 protein kinases; assay: SelectScreen protein kinase panel; format: biochemical; settings: 144 protein kinases incl. PKC isoforms, OSR1, SPAK, WNK
Protocol: Aliquots of HEK-293 cells expressing KCC2 were exposed to 30 μM SSA, heated from 37-55° C. The remaining level of soluble native KCC2 at each temperature was measured by immunoblotting and normalized to the level seen at 37° C. which was given a value of 1. […] This panel included protein kinase C isoforms, OSR1, SPAK (STK39) and with-no-lysine kinases (WNK), all of which phosphorylate KCC2 on multiple residues to indirectly modify its activity (Kahle et al., 2013, supra; Smalley et al., 2020, supra).

C[C@@H]1CN(c2nc3c(c(Nc4ccc(C5CCCCC5)cc4)n2)COC3)CCO1 [Compound A, (R)—N-(4-cyclohexylphenyl)-2-(2-methylmorpholino)-5,7-dihydrofuro[3,4-d]pyrimidin-4-amine]
activity of KCC2-S940A construct (KCC2-S940A): increased the activity | effect on activity of kinase panel [1]: did not modify the activity
